The assay deals with T1, acetylcholine muscarinic M1 receptor (Homo sapiens, UniProt P11229).
T1 construct: expressed in transfected cells; host or cells: CHOnfat cells (CHO), under Geneticin selection; b382 calls them CHOK1/hM1
T1 sequence (P11229 1-460): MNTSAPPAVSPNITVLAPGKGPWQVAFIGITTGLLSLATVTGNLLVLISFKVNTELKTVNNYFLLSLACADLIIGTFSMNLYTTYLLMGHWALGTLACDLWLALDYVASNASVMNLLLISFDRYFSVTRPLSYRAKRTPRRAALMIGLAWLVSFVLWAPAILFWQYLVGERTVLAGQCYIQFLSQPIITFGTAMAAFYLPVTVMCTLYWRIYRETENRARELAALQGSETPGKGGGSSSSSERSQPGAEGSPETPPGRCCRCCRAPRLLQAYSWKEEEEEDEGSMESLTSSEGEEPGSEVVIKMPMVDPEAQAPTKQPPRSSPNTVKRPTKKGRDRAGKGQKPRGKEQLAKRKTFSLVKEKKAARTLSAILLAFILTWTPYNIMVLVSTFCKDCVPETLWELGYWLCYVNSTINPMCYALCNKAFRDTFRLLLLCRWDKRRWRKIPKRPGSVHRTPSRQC
The experiment in a line: muscarinic FLIPR intracellular calcium assay, potentiation of EC20 acetylcholine in CHOnfat/hM1 cells. Type of assay: cell-based. The settings on record: inflection point calculated from FLIPR values, 4 min preincubation, then EC20 acetylcholine (3 nM final), read-out: IP Value. How it is done: The assay studies the effect of one or several concentrations of test compounds on basal or acetylcholine-stimulated Ca^2+ levels using FLIPR.
Compounds are prepared and subjected to a preincubation period of 4 min. Thereafter, a single EC20 concentration of acetylcholine is added to each well (3 nM final). The intracellular Ca^2+ level of each sample is measured and compared to an acetylcholine control to determine any modulatory activity.
Cells: CHOnfat/hM1, hM2, hM3 or hM4 cells are plated 24 hr before the assay at a density of 18,000 cells/well (100 μL) in a 384 well plate. CHOnfat/hM1 and CHOnfat/hM3 Growth Medium: 90% DMEM (Hi Glucose); 10% HI FBS; 2 mM L-glutamine; 0.1 mM NEAA; Pen-Strep; and 1 mg/ml Geneticin, are added. For M2Gqi5CHOnfat and M4Gqi5CHOnfat cells, an additional 600 ug/ml hygromycin is added.
Equipment: 384 well plate, 120 μL addition plate; 96-well Whatman 2 ml Uniplate Incubator, 37° C., 5% CO2; Skatron EMBLA-384 Plate Washer; Multimek Pipetting System; Genesis Freedom 200 System; Mosquito System; Temo Nanolitre Pipetting System; and FLIPR^384 Fluorometric Imaging Plate Reader System are used.
Buffers. Assay Buffer: Hanks Balanced Salt Solution, with 20 mM Hepes, 2.5 mM Probenecid (Sigma P-8761) first dissolved in 1 N NaOH, 1% Bovine Serum Albumin (Sigma A-9647). Dye Loading Buffer: Assay Buffer plus 1% Fetal Bovine Serum and Fluo-4AM/Pluronic Acid Mixture. 2 mM Fluo-4AM ester stock in DMSO (Molecular Probes F-14202) Concentration of 2 μM in buffer for a final concentration of 1 μM in Assay. 20% Pluronic Acid Solution stock, with concentration of 0.04% in Buffer, 0.02% in Assay.
65 μL of 2 mM Fluo-4AM are mixed with 130 μL of 20% Pluronic Acid. The resulting solution and 650 μL FBS is added to the assay buffer for a total volume of 65 mL. Positive Controls: 4-Br-A23187: 10 mM in DMSO; final concentration 10 μM. Acetylcholine: 10 mM in water, working stock at both 20 μM and 30 μM in assay buffer, final concentration of 10 μM. This is used to check the maximum stimulation of the CHOK1/hM1 cells. 20 μM (2×) acetylcholine is added in the preincubation part of the assay, and the 30 μM (3×) stock is added in the second part. (EC20)Acetylcholine: 10 mM in water, working stock of 9 nM (3×), and final concentration in assay is 3 nM. This is used after the preincubation with test compounds. Addition of the EC20 Acetylcholine to each well with a test compound will ascertain any modulator activity. 24 wells contain 3 nM Acetylcholine alone as a control.
Screening Plate: Compounds are titrated in 96-well plates (columns 2-11), 100% DMSO, started at a concentration of 15 mM (150× stock concentration), and 3-fold serial dilutions using Genesis Freedom200 System. Four 96-well plates are combined into a 384-well plate using Mosquito Nanolitre Pipetting System by transferring 1 μl of serial diluted compounds to each well, and 1 mM acetylcholine (100× stock concentration) were added as a control. Using Temo, 49 μl assay buffer is added to each well of the 384-well plate right before assay.
In a 96-well Whatman 2 ml Uniplate, 9 nM Acetylcholine (3×) is pipetted into wells corresponding to the screening compounds, and into control wells. The 30 μM acetylcholine control (3×) is added into control wells, and the 3× agonist plate is transferred into a 384 well plate.
Cells are washed three times with 100 μL of buffer, leaving 30 μL of buffer in each well. Using Multimek, 30 μL of Dye Loading Buffer is added into each well and incubated at 37° C., 5% CO2 for up to one hr.
After 60 min, the cells are washed three times with 100 μL of buffer, leaving 30 μL of buffer in each well. The cell plate, screening plate, and agonist addition plates are placed on the platform in the FLIPR and the door closed. A signal test to check background fluorescence and basal fluorescence signal is performed. Laser intensity is adjusted if necessary. […]
In the case of `O=c1c2cc(Cc3ccc(-n4cccn4)nc3)c3ccccc3c2ncn1[C@H]1CCOC[C@@H]1O` [Example 5, 3-[(3R,4S)-3-Hydroxytetrahydro-2H-pyran-4-yl]-6-{[6-(1H-pyrazol-1-yl)pyridine-3-yl]methyl}benzo[h]quinazolin-4(3H)-one], the EC50 was 0.015 µM.

In the case of `Cc1ccc(Cc2cc3c(=O)n([C@H]4CCOC[C@@H]4O)cnc3c3ccccc23)cn1` [Example 3, 3-[(3R,4S)-3-Hydroxytetrahydro-2H-pyran-4-yl]-6-[(6-methylpyridin-3-yl)methyl]benzo[h]quinazolin-4(3H)-one], the EC50 is 0.015 µM.

In the case of `O=c1c2cc(Cc3ccc(CF)nc3)c3ccccc3c2ncn1[C@H]1CCOC[C@@H]1O` [Example 22, 6-{[6-(Fluoromethyl)pyridine-3-yl]methyl}-3-[(3R,4S)-3-hydroxytetrahydro-2H-pyran-4-yl]benzo[h]quinazolin-4(3H)-one], the EC50 is 0.023 µM.

For the compound `Cn1cc(-c2ccc(Cc3cc4c(=O)n([C@H]5CCOC[C@@H]5O)cnc4c4ccccc34)cn2)cn1` [Example 4, 3-[(3R,4S)-3-Hydroxytetrahydro-2H-pyran-4-yl]-6-{[6-(1-methyl-1H-pyrazol-4-yl)pyridine-3-yl]methyl}benzo[h]quinazolin-4(3H)-one], the EC50 is 0.0025 µM.

Turning to `CS(=O)(=O)c1ccc(Cc2cc3c(=O)n([C@H]4CCOC[C@@H]4O)cnc3c3ccccc23)cn1` [Example 16, 3-[(3R,4S)-3-Hydroxytetrahydro-2H-pyran-4-yl]-6-{[6-(methylsulfonyl)pyridine-3-yl]methyl}benzo[h]quinazolin-4(3H)-one], the EC50 is 0.053 µM.

As for `O=c1c2cc(Cc3ccc(N4CCOCC4)cc3)c3ccccc3c2ncn1[C@H]1CCOC[C@@H]1O` [Example 12, 3-[(3R,4S)-3-Hydroxytetrahydro-2H-pyran-4-yl]-6-(4-morpholin-4-ylbenzyl)benzo[h]quinazolin-4(3H)-one], the EC50 was 0.021 µM.

For the compound `O=c1c2cc(Cc3ccc(Cl)nc3)c3ccccc3c2ncn1[C@H]1CCNC[C@@H]1O` (racemic) [Example 35, rac-6-[(6-Chloropyridin-3-yl)methyl]-3-[(3R,4R)-3-hydroxypiperidin-4-yl]benzo[h]quinazolin-4(3)H-one], the EC50 is 0.054 µM.

`O=c1c2cc(Cc3cc[n+]([O-])c(Cl)c3)c3ccccc3c2ncn1[C@H]1CCOC[C@@H]1O` [Example 24, 6-[(2-Chloro-1-oxidopyridin-4-yl)methyl]-3-[(3R,4S)-3-hydroxytetrahydro-2H-pyran-4-yl]benzo[h]quinazolin-4(3H)-one]: the EC50 is 0.058 µM.

For the compound `CC(=O)N1CC[C@H](n2cnc3c(cc(Cc4ccc(Cl)nc4)c4ccccc43)c2=O)[C@@H](O)C1` (racemic) [Example 36, rac-3-[(3R,4R)-1-acetyl-3-hydroxypiperidin-4-yl]-6-[(6-chloropyridin-3-yl)methyl]benzo[h]quinazolin-4(3H)-one], the EC50 is 0.12 µM.

Turning to `COC(C)(C)c1ccc(Cc2cc3c(=O)n([C@H]4CCOC[C@@H]4O)cnc3c3ccccc23)cn1` [Example 20, 3-[(3R,4S)-3-Hydroxytetrahydro-2H-pyran-4-yl]-6-{[6-(1-methoxy-1-methylethyl)pyridine-3-yl]methyl}benzo[h]quinazolin-4(3H)-one], the EC50 was 0.045 µM.

Turning to `O=c1c2cc(Cc3ccc(Cl)nc3)c3ccccc3c2ncn1[C@H]1CCOC[C@@H]1O` [Example 1, 6-[(6-Chloropyridin-3-yl)methyl]-3-[(3R,4S)-3-hydroxytetrahydro-2H-pyran-4-yl]benzo[h]quinazolin-4(3H)-one], the EC50 is 0.013 µM.

For `COc1ccc(Cc2cc3c(=O)n([C@H]4CCOC[C@@H]4O)cnc3c3ccccc23)cn1` [Example 7, 3-[(3R,4S)-3-Hydroxytetrahydro-2H-pyran-4-yl]-6-[(6-methoxypyridin-3-yl)methyl]benzo[h]quinazolin-4(3H)-one], the EC50 is 0.0168 µM.

In the case of `C[S+]([O-])c1ccc(Cc2cc3c(=O)n([C@H]4CCOC[C@@H]4O)cnc3c3ccccc23)cn1` (stereo partly drawn) [Example 17, 3-[(3R,4S)-3-Hydroxytetrahydro-2H-pyran-4-yl]-6-{[6-(methylsulfinyl)pyridine-3-yl]methyl}benzo[h]quinazolin-4(3H)-one], the EC50 was 0.09 µM.

`O=c1c2cc(Cc3ccc(Cl)[n+]([O-])c3)c3ccccc3c2ncn1[C@H]1CCOC[C@@H]1O` [Example 14, 6-[(6-Chloro-1-oxidopyridin-3-yl)methyl]-3-[(3R,4S)-3-hydroxytetrahydro-2H-pyran-4-yl]benzo[h]quinazolin-4(3H)-one]: the EC50 is 0.059 µM.

For `O=c1c2cc(Cc3ccnc(Cl)c3)c3ccccc3c2ncn1[C@H]1CCOC[C@@H]1O` [Example 15, 6-[(2-Chloropyridin-4-yl)methyl]-3-[(3R,4S)-3-hydroxytetrahydro-2H-pyran-4-yl]benzo[h]quinazolin-4(3H)-one], the EC50 is 0.012 µM.

Regarding `O=c1c2cc(Cc3ccc(C(F)F)nc3)c3ccccc3c2ncn1[C@H]1CCOC[C@@H]1O` [Example 23, 6-{[6-(Difluoromethyl)pyridine-3-yl]methyl}-3-[(3R,4S)-3-hydroxytetrahydro-2H-pyran-4-yl]benzo[h]quinazolin-4(3H)-one], the EC50 was 0.014 µM.

Take `O=c1c2cc(Cc3ccc(OC(F)F)nc3)c3ccccc3c2ncn1[C@H]1CCOC[C@@H]1O` [Example 29, 6-{[6-(Difluoromethoxy)pyridine-3-yl]methyl}-3-[(3R,4S)-3-hydroxytetrahydro-2H-pyran-4-yl]benzo[h]quinazolin-4(3H)-one]: the EC50 was 0.039 µM.

On to `O=C(O)c1ccc(Cc2cc3c(=O)n([C@H]4CCOC[C@@H]4O)cnc3c3ccccc23)cn1` [Example 18, 5-({3-[(3R,4S)-3-Hydroxytetrahydro-2H-pyran-4-yl]4-oxo-3,4-dihydrobenzo[h]quinazolin-6-yl}methyl)pyridine-2-carboxylic acid], for which the EC50 was 0.124 µM.

As for `O=c1c2cc(Cc3ccc(O)nc3)c3ccccc3c2ncn1[C@H]1CCOC[C@@H]1O` [Example 28, 6-[(6-Hydroxypyridin-3-yl)methyl]-3-[(3R,4S)-3-hydroxytetrahydro-2H-pyran-4-yl]benzo[h]quinazolin-4(3H)-one], the EC50 is 0.027 µM.

`CC(=O)c1ccc(Cc2cc3c(=O)n([C@H]4CCOC[C@@H]4O)cnc3c3ccccc23)cn1` [Example 10, 6-[(6-Acetylpyridin-3-yl)methyl]-3-[(3R,4S)-3-hydroxytetrahydro-2H-pyran-4-yl]benzo[h]quinazolin-4(3H)-one]: the EC50 was 0.03 µM.

These data come from patent US9260418B2, “Pyranyl aryl methyl benzoquinolinone M1 receptor positive allosteric modulators” (Merck Sharp & Dohme Corp., priority 2009, dated 2016).
